From the NIST ThermoML archive (doi:10.1016/j.jct.2012.04.015)
Numbers after ± are expanded uncertainties.

Columns and labels:
[1] = 101.33 kPa, Liquid, Vibrating tube method
[2] = refractive index (Na D-line) (dimensionless); conditions: 101.33 kPa, Liquid, Standard Abbe refractometry

SMILES | mass density ([1]; 298.15 K) [kg/m3] | refractive index ([2]; 298.15 K) | mass density ([1]; 303.15 K) [kg/m3] | refractive index ([2]; 303.15 K)
CCCCn1cc[n+](C)c1.O=S(=O)([O-])C(F)(F)F [1-butyl-3-methylimidazolium trifluoromethanesulfonate] | 1303.63 ± 0.49 | 1.43895 ± 0.00037 |  | 
C1CCCCC1 [cyclohexane] | 773.88 ± 0.13 | 1.42356 ± 0.00031 |  | 
CCCCCC[n+]1ccn(C)c1.O=S(=O)([N-]S(=O)(=O)C(F)(F)F)C(F)(F)F | 1371.99 ± 0.55 | 1.43016 ± 0.00037 |  | 
CCCCCCn1cc[n+](C)c1.O=S(=O)([O-])C(F)(F)F [1-hexyl-3-methylimidazolium trifluoromethanesulfonate] |  |  | 1232.55 ± 0.43 | 1.43926 ± 0.00037
Cc1ccccc1 [toluene] | 862.23 ± 0.1 | 1.49398 ± 0.00031 |  | 
CCCCCCC [heptane] | 679.57 ± 0.18 | 1.38529 ± 0.00033 |  | 
